Each structure is given as a SMILES string.

Assay [1] deals with Aerobe bacteria (TSA plates). Nature of the assay: Plate count of aerobe total viable count in zinc containing powders. The format is cell-based. The conditions noted are these: powder in disruption buffer, 48 hours at 30° C., detection limit 100 cfu/g. Here is the method:
(§1) The microbial contamination (bacterial and fungi growth) of three different zinc containing powder samples was determined by the plate count method (spread count) according to the following procedure: 1 g of the respective powder and 9 ml sterile disruption buffer (DB) were weighed into a sterile 50 ml test tube (Greiner) under aseptic conditions using an autoclaved disposable spatula (VWR) in order to obtain suspensions of the zinc containing powder samples. To detach the microorganisms from the zinc containing powders samples, the suspensions were shaken on a vortex for 60 sec. at 2500 rpm before being put on a shaker for 30 minutes at motor setting 1400 (at room temperature, i.e. 21° C.). The sample to be analyzed was appropriately diluted and a defined volume no greater than 0.1 ml was spread over the surface of an agar plate using a sterile glass/plastic spreader. The agar plates were then incubated upside down (condensed water) for a defined period of time at a defined temperature. The sample to be analyzed was diluted 1:10 in PBS and 100 μl of the dilution was spread onto the TSA plate which was incubated for 48 hours at 30° C. The plates were evaluated by counting the grown colonies, thereby taking into account that only plates containing between 30-300 colonies have a high statistical significance. […]

Assay [2] deals with Fungi. Nature of the assay: Plate count of fungal growth in zinc containing powders. The class given is cell-based. Particulars: powder in disruption buffer, Sabouraud-Glucose agar, 7 days at 25° C.; detection limit 10 cfu/g. The method, then:
as §1, with “dilution were” for “dilution was”, “the” for “the TSA”, “for 7 days” for “for 48 hours”, “at 25°” for “at 30°”

For the molecule `O=C([O-])[O-].[Zn+2]` [ZnCaCO3, ZnCO3], the “TVC Aerobe” value in assay [1] is given as less than 100 cfu/g. In addition, in assay [2], the “TVC Fungi” value was less than 10 cfu/g.

Regarding `[O]=[Zn]` [ZnO], in assay [1], the “TVC Aerobe” value is reported as less than 100 cfu/g. For the same molecule, in assay [2], the “TVC Fungi” value is given as less than 10 cfu/g.
